Assay results from ChEMBL document CHEMBL2440076, “New triarylpyrazoles as broad-spectrum anticancer agents: design, synthesis, and biological evaluation” (Eur J Med Chem, 2013).

Legend:
Assay type in all cases: functional
A549 = experiment: Growth inhibition of human A549/ATCC cells assessed as cell growth at 5X10'-7 M after 48 hrs by sulforhodamine B assay; details: A549, 48 h, read-out: Activity
BT-549 [1] = experiment: Growth inhibition of human BT549 cells assessed as cell growth at 5X10'-8 M after 48 hrs by sulforhodamine B assay; details: BT-549, 48 h, read-out: Activity
MDA-MB-435 = experiment: Growth inhibition of human MDA-MB-435 cells assessed as cell growth at 5X10'-8 M after 48 hrs by sulforhodamine B assay; details: MDA-MB-435, 48 h, read-out: Activity
M14 = experiment: Growth inhibition of human M14 cells assessed as cell growth at 5X10'-8 M after 48 hrs by sulforhodamine B assay; details: M14, 48 h, read-out: Activity
[2] = Growth inhibition of human NCI-ADR-RES cells assessed as cell growth at 5X10'-8 M after 48 hrs by sulforhodamine B assay; details: read-out: Activity
LOX IMVI = experiment: Growth inhibition of human LOXIMVI cells assessed as cell growth at 5X10'-9 M after 48 hrs by sulforhodamine B assay; details: read-out: Activity
SNB-19 [3] = experiment: Growth inhibition of human SNB19 cells assessed as cell growth at 5X10'-7 M after 48 hrs by sulforhodamine B assay; details: SNB-19, 48 h, read-out: Activity
[4] = Growth inhibition of human Hs 578T cells assessed as cell growth at 5X10'-7 M after 48 hrs by sulforhodamine B assay; details: read-out: Activity
MOLT-4 = experiment: Growth inhibition of human MOLT4 cells assessed as cell growth at 5X10'-9 M after 48 hrs by sulforhodamine B assay; details: MOLT-4, 48 h, read-out: Activity
UACC-62 = experiment: Growth inhibition of human UACC62 cells assessed as cell growth at 5X10'-7 M after 48 hrs by sulforhodamine B assay; details: UACC-62, 48 h, read-out: Activity
SK-MEL-2 = experiment: Growth inhibition of human SK-MEL-2 cells assessed as cell growth at 5X10'-8 M after 48 hrs by sulforhodamine B assay; details: SK-MEL-2, 48 h, read-out: Activity
MDA-MB-231 = experiment: Growth inhibition of human MDA-MB-231 cells assessed as cell growth at 5X10'-7 M after 48 hrs by sulforhodamine B assay; details: MDA-MB-231, 48 h, read-out: Activity
SNB-19 [5] = experiment: Growth inhibition of human SNB19 cells assessed as cell growth at 5X10'-9 M after 48 hrs by sulforhodamine B assay; details: SNB-19, 48 h, read-out: Activity
T47D [6] = experiment: Growth inhibition of human T47D cells assessed as cell growth at 5X10'-8 M after 48 hrs by sulforhodamine B assay; details: read-out: Activity
SW-620 [7] = experiment: Growth inhibition of human SW620 cells assessed as cell growth at 5X10'-6 M after 48 hrs by sulforhodamine B assay; details: SW-620, 48 h, read-out: Activity
HOP-62 = experiment: Growth inhibition of human HOP62 cells assessed as cell growth at 5X10'-5 M after 48 hrs by sulforhodamine B assay; details: HOP-62, 48 h, read-out: Activity
NCI-H522 = experiment: Growth inhibition of human NCI-H522 cells assessed as cell growth at 5X10'-7 M after 48 hrs by sulforhodamine B assay; details: NCI-H522, 48 h, read-out: Activity
T47D [8] = experiment: Growth inhibition of human T47D cells assessed as cell growth at 5X10'-7 M after 48 hrs by sulforhodamine B assay; details: read-out: Activity
CCRF-CEM = experiment: Growth inhibition of human CCRF-CEM cells assessed as cell growth at 5X10'-6 M after 48 hrs by sulforhodamine B assay; details: read-out: Activity
NCI-H322M = experiment: Growth inhibition of human NCI-H322M cells assessed as cell growth at 5X10'-8 M after 48 hrs by sulforhodamine B assay; details: read-out: Activity
SW-620 [9] = experiment: Growth inhibition of human SW620 cells assessed as cell growth at 5X10'-7 M after 48 hrs by sulforhodamine B assay; details: SW-620, 48 h, read-out: Activity
RPMI-8226 = experiment: Growth inhibition of human RPMI8226 cells assessed as cell growth at 5X10'-8 M after 48 hrs by sulforhodamine B assay; details: RPMI-8226, 48 h, read-out: Activity
BT-549 [10] = experiment: Growth inhibition of human BT549 cells assessed as cell growth at 5X10'-6 M after 48 hrs by sulforhodamine B assay; details: BT-549, 48 h, read-out: Activity
SF-539 = experiment: Growth inhibition of human SF539 cells assessed as cell growth at 5X10'-6 M after 48 hrs by sulforhodamine B assay; details: SF-539, 48 h, read-out: Activity
SK-MEL-28 = experiment: Growth inhibition of human SK-MEL-28 cells assessed as cell growth at 5X10'-8 M after 48 hrs by sulforhodamine B assay; details: SK-MEL-28, 48 h, read-out: Activity
SK-MEL-5 = experiment: Growth inhibition of human SK-MEL-5 cells assessed as cell growth at 5X10'-6 M after 48 hrs by sulforhodamine B assay; details: SK-MEL-5, 48 h, read-out: Activity
TK-10 = experiment: Growth inhibition of human TK10 cells assessed as cell growth at 5X10'-5 M after 48 hrs by sulforhodamine B assay; details: TK-10, 48 h, read-out: Activity
HT-29 [11] = experiment: Growth inhibition of human HT-29 cells assessed as cell growth at 5X10'-5 M after 48 hrs by sulforhodamine B assay; details: HT-29, 48 h, read-out: Activity
HT-29 [12] = experiment: Growth inhibition of human HT-29 cells assessed as cell growth at 5X10'-8 M after 48 hrs by sulforhodamine B assay; details: HT-29, 48 h, read-out: Activity
[13] = Growth inhibition of human HCC2998 cells assessed as cell growth at 5X10'-7 M after 48 hrs by sulforhodamine B assay; details: HCC 2998, 48 h, read-out: Activity
UACC-257 = experiment: Growth inhibition of human UACC257 cells assessed as cell growth at 5X10'-6 M after 48 hrs by sulforhodamine B assay; details: UACC-257, 48 h, read-out: Activity
OVCAR-3 [14] = experiment: Growth inhibition of human OVCAR3 cells assessed as cell growth at 5X10'-5 M after 48 hrs by sulforhodamine B assay; details: OVCAR-3, 48 h, read-out: Activity
SF-268 = experiment: Growth inhibition of human SF268 cells assessed as cell growth at 5X10'-8 M after 48 hrs by sulforhodamine B assay; details: SF-268, 48 h, read-out: Activity
OVCAR-3 [15] = experiment: Growth inhibition of human OVCAR3 cells assessed as cell growth at 5X10'-6 M after 48 hrs by sulforhodamine B assay; details: OVCAR-3, 48 h, read-out: Activity
[16] = Growth inhibition of human HCC2998 cells assessed as cell growth at 5X10'-9 M after 48 hrs by sulforhodamine B assay; details: HCC 2998, 48 h, read-out: Activity
SF-295 = experiment: Growth inhibition of human SF295 cells assessed as cell growth at 5X10'-6 M after 48 hrs by sulforhodamine B assay; details: SF-295, 48 h, read-out: Activity

Row | SMILES | growth at 0.5 µM (A549) [%] | growth at 0.05 µM (BT-549 [1]) [%] | growth at 0.05 µM (MDA-MB-435) [%] | growth at 0.05 µM (M14) [%] | growth at 0.05 µM [2] [%] | growth at 0.005 µM (LOX IMVI) [%] | growth at 0.5 µM (SNB-19 [3]) [%] | growth at 0.5 µM [4] [%] | growth at 0.005 µM (MOLT-4) [%] | growth at 0.5 µM (UACC-62) [%] | growth at 0.05 µM (SK-MEL-2) [%] | growth at 0.5 µM (MDA-MB-231) [%] | growth at 0.005 µM (SNB-19 [5]) [%] | growth at 0.05 µM (T47D [6]) [%] | growth at 5 µM (SW-620 [7]) [%] | growth at 50 µM (HOP-62) [%] | growth at 0.5 µM (NCI-H522) [%] | growth at 0.5 µM (T47D [8]) [%] | growth at 5 µM (CCRF-CEM) [%] | growth at 0.05 µM (NCI-H322M) [%] | also measured
1 | COc1cc(-c2nn(-c3cccc(NC(=O)c4cccc(C(F)(F)F)c4)c3)cc2-c2ccncc2)ccc1Cl | 91 | 98 | 100 | 94 | 96 | 94 | 100 | 74 | 99 | 83 | 97 | 77 | 100 | 91 | 30 | 51 | 79 | 84 | 6 | 88 | growth at 0.5 µM (SW-620 [9]): 89%; growth at 0.05 µM (RPMI-8226): 98%; growth at 5 µM (BT-549 [10]): 34%; growth at 5 µM (SF-539): -41%; growth at 0.05 µM (SK-MEL-28): 102%; growth at 5 µM (SK-MEL-5): -38%; growth at 50 µM (TK-10): 18%; growth at 50 µM (HT-29 [11]): -4%; growth at 0.05 µM (HT-29 [12]): 96%; growth at 0.5 µM [13]: 105%; growth at 5 µM (UACC-257): 56%; growth at 50 µM (OVCAR-3 [14]): -38%; growth at 0.05 µM (SF-268): 93%; growth at 5 µM (OVCAR-3 [15]): -28%; growth at 0.005 µM [16]: 92%; growth at 5 µM (SF-295): -24%
2 | O=C(Nc1cccc(-n2cc(-c3ccncc3)c(-c3ccc(Cl)c(O)c3)n2)c1)Nc1cc(C(F)(F)F)cc(C(F)(F)F)c1 | 37 | 111 | 96 | 104 | 103 | 98 | 64 | 82 | 106 | 69 | 113 | 74 | 90 | 98 | 1 | -90 | 65 | 88 | 3 | 104 | growth at 0.5 µM (SW-620 [9]): 85%; growth at 0.05 µM (RPMI-8226): 95%; growth at 5 µM (BT-549 [10]): -65%; growth at 5 µM (SF-539): -91%; growth at 0.05 µM (SK-MEL-28): 95%; growth at 5 µM (SK-MEL-5): -94%; growth at 50 µM (TK-10): -95%; growth at 50 µM (HT-29 [11]): -90%; growth at 0.05 µM (HT-29 [12]): 107%; growth at 0.5 µM [13]: 92%; growth at 5 µM (UACC-257): -35%; growth at 50 µM (OVCAR-3 [14]): -94%; growth at 0.05 µM (SF-268): 103%; growth at 5 µM (OVCAR-3 [15]): -70%; growth at 0.005 µM [16]: 99%; growth at 5 µM (SF-295): -57%
3 | O=C(Nc1cccc(-n2cc(-c3ccncc3)c(-c3ccc(Cl)c(O)c3)n2)c1)c1ccc(N2CCOCC2)c(C(F)(F)F)c1 | 92 | 101 | 93 | 94 | 98 | 95 | 105 | 84 | 99 | 97 | 98 | 67 | 97 | 101 | 2 | 6 | 92 | 105 | 26 | 104 | growth at 0.5 µM (SW-620 [9]): 106%; growth at 0.05 µM (RPMI-8226): 99%; growth at 5 µM (BT-549 [10]): 70%; growth at 5 µM (SF-539): 21%; growth at 0.05 µM (SK-MEL-28): 102%; growth at 5 µM (SK-MEL-5): 31%; growth at 50 µM (TK-10): 24%; growth at 50 µM (HT-29 [11]): 16%; growth at 0.05 µM (HT-29 [12]): 101%; growth at 0.5 µM [13]: 108%; growth at 5 µM (UACC-257): 57%; growth at 50 µM (OVCAR-3 [14]): 11%; growth at 0.05 µM (SF-268): 93%; growth at 5 µM (OVCAR-3 [15]): 49%; growth at 0.005 µM [16]: 95%; growth at 5 µM (SF-295): 13%
